From patent publication US12077503B2, “Substituted cyclic amides and their use as herbicides” (FMC CORPORATION, priority 2015, dated 2024)

Columns and labels:
Format in all cases: in vivo
[1] = system: barnyardgrass (Echinochloa crus-galli); test: Test G Pre-Emergence Protocol; settings: Echinochloa crus-galli, pre-emergence, 312 h, evaluated after 13 days; for pest or weed control at 15.625 g/ha: 15.625 g ai/ha, read-out: Barnyard grass damage rating (100=total damage to plant; 0=no damage to plant); for pest or weed control at 62.5 g/ha: 62.5 g ai/ha, 100=total damage to plant, 0=no damage to plant, read-out: plant damage rating, Barnyardgrass; for pest or weed control at 250 g/ha: 250 g ai/ha, read-out: Barnyardgrass damage rating (100=total damage to plant; 0=no damage to plant)
How it was run: (§1)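 One day after sowing, pots are treated with a spray of test compound formulated in acetone/water 50:50 plus 0.5% Tween 20, giving 15.625, 62.5 or 250 g/ha. Evaluation on a 0–100 damage scale follows 13 days of glasshouse growth.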

[2] = system: corn (Zea mays); test: Test G Pre-Emergence Protocol; settings: Zea mays, pre-emergence, 312 h, evaluated after 13 days; for plant injury at 15.625 g/ha: 15.625 g ai/ha; for plant injury at 15.625 g/ha / plant injury at 250 g/ha: read-out: Corn damage rating (100=total damage to plant; 0=no damage to plant); for plant injury at 62.5 g/ha: 62.5 g ai/ha, 100=total damage to plant, 0=no damage to plant, read-out: plant damage rating, Corn; for plant injury at 250 g/ha: 250 g ai/ha
How it was run: as §1

[3] = system: giant foxtail (Setaria faberi); test: Test G Pre-Emergence Protocol; settings: Setaria faberi, pre-emergence, 312 h, evaluated after 13 days; for pest or weed control at 15.625 g/ha: 15.625 g ai/ha; for pest or weed control at 15.625 g/ha / pest or weed control at 250 g/ha: read-out: Foxtail, Giant damage rating (100=total damage to plant; 0=no damage to plant); for pest or weed control at 62.5 g/ha: 62.5 g ai/ha, 100=total damage to plant, 0=no damage to plant, read-out: plant damage rating, Foxtail, Giant; for pest or weed control at 250 g/ha: 250 g ai/ha
How it was run: as §1

[4] = system: ivy-leaved morning glory (Ipomoea hederacea); test: Test G Pre-Emergence Protocol; settings: Ipomoea, pre-emergence, 312 h, evaluated after 13 days; for pest or weed control at 15.625 g/ha: 15.625 g ai/ha, read-out: Morning-glory, Ivy-leaved damage rating (100=total damage to plant; 0=no damage to plant); for pest or weed control at 62.5 g/ha: 62.5 g ai/ha, 100=total damage to plant, 0=no damage to plant, read-out: plant damage rating, Morningglory, Ivy-leaved; for pest or weed control at 250 g/ha: 250 g ai/ha, read-out: Morningglory, Ivy-leaved damage rating (100=total damage to plant; 0=no damage to plant)
How it was run: as §1

[5] = system: redroot pigweed (Amaranthus retroflexus); test: Test G Pre-Emergence Protocol; settings: Amaranthus retroflexus, pre-emergence, 312 h, evaluated after 13 days; for pest or weed control at 15.625 g/ha: 15.625 g ai/ha; for pest or weed control at 15.625 g/ha / pest or weed control at 250 g/ha: read-out: Pigweed, Redroot damage rating (100=total damage to plant; 0=no damage to plant); for pest or weed control at 62.5 g/ha: 62.5 g ai/ha, 100=total damage to plant, 0=no damage to plant, read-out: plant damage rating, Pigweed, Redroot; for pest or weed control at 250 g/ha: 250 g ai/ha
How it was run: as §1

[6] = system: velvetleaf (Abutilon theophrasti); test: Test G Pre-Emergence Protocol; settings: Abutilon theophrasti, pre-emergence, 312 h, evaluated after 13 days; for pest or weed control at 15.625 g/ha: 15.625 g ai/ha; for pest or weed control at 15.625 g/ha / pest or weed control at 250 g/ha: read-out: Velvetleaf damage rating (100=total damage to plant; 0=no damage to plant); for pest or weed control at 62.5 g/ha: 62.5 g ai/ha, 100=total damage to plant, 0=no damage to plant, read-out: plant damage rating, Velvetleaf; for pest or weed control at 250 g/ha: 250 g ai/ha
How it was run: as §1

[7] = system: barnyardgrass (Echinochloa crus-galli); test: Test G Post-Emergence Protocol; settings: Echinochloa crus-galli, post-emergence, 312 h; for pest or weed control at 15.625 g/ha: 15.625 g ai/ha, evaluated after 13 days (100=total damage to plant; 0=no damage to plant), read-out: Barnyardgrass damage rating; for pest or weed control at 62.5 g/ha: 62.5 g ai/ha, read-out: Barnyardgrass damage rating (100=total damage to plant; 0=no damage to plant); for pest or weed control at 62.5 g/ha / pest or weed control at 250 g/ha: evaluated after 13 days; for pest or weed control at 250 g/ha: 250 g ai/ha, read-out: damage to plant, Barnyardgrass (100=total damage to plant; 0=no damage to plant)
How it was run: (§2)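 A glasshouse post-emergence test: 8-day-old plants sprayed at 15.625, 62.5 or 250 g/ha, then grown at 24/16 °C day/night with 14 h light and 65% humidity. Damage rated 13 days later, 0–100.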

[8] = system: corn (Zea mays); test: Test G Post-Emergence Protocol; settings: Zea mays, post-emergence, 312 h; for plant injury at 15.625 g/ha: 15.625 g ai/ha, evaluated after 13 days (100=total damage to plant; 0=no damage to plant), read-out: Corn damage rating; for plant injury at 62.5 g/ha: 62.5 g ai/ha, read-out: Corn damage rating (100=total damage to plant; 0=no damage to plant); for plant injury at 62.5 g/ha / plant injury at 250 g/ha: evaluated after 13 days; for plant injury at 250 g/ha: 250 g ai/ha, read-out: damage to plant, Corn (100=total damage to plant; 0=no damage to plant)
How it was run: as §2

[9] = system: giant foxtail (Setaria faberi); test: Test G Post-Emergence Protocol; settings: Setaria faberi, post-emergence, 312 h; for pest or weed control at 15.625 g/ha: 15.625 g ai/ha, evaluated after 13 days (100=total damage to plant; 0=no damage to plant), read-out: Foxtail, Giant damage rating; for pest or weed control at 62.5 g/ha: 62.5 g ai/ha, read-out: Foxtail, Giant damage rating (100=total damage to plant; 0=no damage to plant); for pest or weed control at 62.5 g/ha / pest or weed control at 250 g/ha: evaluated after 13 days; for pest or weed control at 250 g/ha: 250 g ai/ha, read-out: damage to plant, Foxtail, Giant (100=total damage to plant; 0=no damage to plant)
How it was run: as §2

[10] = system: ivy-leaved morning glory (Ipomoea hederacea); test: Test G Post-Emergence Protocol; settings: Ipomoea, post-emergence, 312 h; for pest or weed control at 15.625 g/ha: 15.625 g ai/ha, evaluated after 13 days (100=total damage to plant; 0=no damage to plant), read-out: Morningglory, Ivy-leaved damage rating; for pest or weed control at 62.5 g/ha: 62.5 g ai/ha, read-out: Morningglory, Ivy-leaved damage rating (100=total damage to plant; 0=no damage to plant); for pest or weed control at 62.5 g/ha / pest or weed control at 250 g/ha: evaluated after 13 days; for pest or weed control at 250 g/ha: 250 g ai/ha, read-out: damage to plant, Morningglory, Ivy-leaved (100=total damage to plant; 0=no damage to plant)
How it was run: as §2

[11] = system: redroot pigweed (Amaranthus retroflexus); test: Test G Post-Emergence Protocol; settings: Amaranthus retroflexus, post-emergence, 312 h; for pest or weed control at 15.625 g/ha: 15.625 g ai/ha, evaluated after 13 days (100=total damage to plant; 0=no damage to plant), read-out: Pigweed, Redroot damage rating; for pest or weed control at 62.5 g/ha: 62.5 g ai/ha, read-out: Pigweed, Redroot damage rating (100=total damage to plant; 0=no damage to plant); for pest or weed control at 62.5 g/ha / pest or weed control at 250 g/ha: evaluated after 13 days; for pest or weed control at 250 g/ha: 250 g ai/ha, read-out: damage to plant, Pigweed, Redroot (100=total damage to plant; 0=no damage to plant)
How it was run: as §2

[12] = system: velvetleaf (Abutilon theophrasti); test: Test G Post-Emergence Protocol; settings: Abutilon theophrasti, post-emergence, 312 h; for pest or weed control at 15.625 g/ha: 15.625 g ai/ha, evaluated after 13 days (100=total damage to plant; 0=no damage to plant), read-out: Velvetleaf damage rating; for pest or weed control at 62.5 g/ha: 62.5 g ai/ha, read-out: Velvetleaf damage rating (100=total damage to plant; 0=no damage to plant); for pest or weed control at 62.5 g/ha / pest or weed control at 250 g/ha: evaluated after 13 days; for pest or weed control at 250 g/ha: 250 g ai/ha, read-out: damage to plant, Velvetleaf (100=total damage to plant; 0=no damage to plant)
How it was run: as §2

Cc1cc(NC(=O)[C@@H]2C(=O)N(C)C[C@H]2c2ccc(C(F)(F)F)cc2)ccc1F (racemic) [Compound 1593]
20%: pest or weed control at 250 g/ha [1] | pest or weed control at 250 g/ha [7]
70%: pest or weed control at 250 g/ha [3] | pest or weed control at 250 g/ha [9]
10%: pest or weed control at 62.5 g/ha [3] | plant injury at 62.5 g/ha [8] | plant injury at 250 g/ha [8] | pest or weed control at 62.5 g/ha [9]
0%: pest or weed control at 15.625 g/ha [1] | pest or weed control at 62.5 g/ha [1] | plant injury at 15.625 g/ha [2] | plant injury at 62.5 g/ha [2] | plant injury at 250 g/ha [2] | pest or weed control at 15.625 g/ha [3] | pest or weed control at 15.625 g/ha [4] | pest or weed control at 62.5 g/ha [4] | pest or weed control at 250 g/ha [4] | pest or weed control at 15.625 g/ha [5] | pest or weed control at 62.5 g/ha [5] | pest or weed control at 250 g/ha [5] | pest or weed control at 15.625 g/ha [6] | pest or weed control at 62.5 g/ha [6] | pest or weed control at 250 g/ha [6] | pest or weed control at 15.625 g/ha [7] | pest or weed control at 62.5 g/ha [7] | plant injury at 15.625 g/ha [8] | pest or weed control at 15.625 g/ha [9] | pest or weed control at 15.625 g/ha [10] | pest or weed control at 62.5 g/ha [10] | pest or weed control at 250 g/ha [10] | pest or weed control at 15.625 g/ha [11] | pest or weed control at 62.5 g/ha [11] | pest or weed control at 250 g/ha [11] | pest or weed control at 15.625 g/ha [12] | pest or weed control at 62.5 g/ha [12] | pest or weed control at 250 g/ha [12]

CSc1ccccc1NC(=O)[C@@H]1C(=O)N(C)C[C@H]1c1ccc(C(F)(F)F)nc1 (racemic) [Compound 1584]
50%: pest or weed control at 62.5 g/ha [3]
60%: pest or weed control at 250 g/ha [5]
70%: plant injury at 250 g/ha [2] | pest or weed control at 250 g/ha [7]
20%: pest or weed control at 250 g/ha [6] | pest or weed control at 62.5 g/ha [10] | pest or weed control at 250 g/ha [12]
80%: pest or weed control at 250 g/ha [9]
0%: pest or weed control at 15.625 g/ha [1] | pest or weed control at 62.5 g/ha [1] | plant injury at 15.625 g/ha [2] | plant injury at 62.5 g/ha [2] | pest or weed control at 15.625 g/ha [3] | pest or weed control at 15.625 g/ha [4] | pest or weed control at 62.5 g/ha [4] | pest or weed control at 15.625 g/ha [5] | pest or weed control at 62.5 g/ha [5] | pest or weed control at 15.625 g/ha [6] | pest or weed control at 62.5 g/ha [6] | pest or weed control at 15.625 g/ha [7] | pest or weed control at 62.5 g/ha [7] | plant injury at 15.625 g/ha [8] | plant injury at 250 g/ha [8] | pest or weed control at 15.625 g/ha [9] | pest or weed control at 15.625 g/ha [10] | pest or weed control at 15.625 g/ha [11] | pest or weed control at 62.5 g/ha [11] | pest or weed control at 15.625 g/ha [12] | pest or weed control at 62.5 g/ha [12]
90%: pest or weed control at 250 g/ha [1] | pest or weed control at 250 g/ha [3]
40%: pest or weed control at 62.5 g/ha [9] | pest or weed control at 250 g/ha [11]
10%: pest or weed control at 250 g/ha [4] | plant injury at 62.5 g/ha [8] | pest or weed control at 250 g/ha [10]
